Results as given in patent US20130011480A1, “CYTOTOXIC THERAPY BY PROTON FLUX MODULATION” (priority 2011, published 2013).
Counter-ions that a name gives are not always drawn. Like-named read-outs stand apart in the source and are kept apart here.

How the values were obtained:
hepatoblastoma cells = conditions: morphological observations and flow cytometry; cited from earlier work
[1] = system: normal human hepatic cells; conditions: treated versus untreated cells; cited from earlier work
[2] = system: Na+-independent Cl−/HCO3− exchange; conditions: cited from earlier work
[3] = raises metabolic rate and promotes weight loss; cited from earlier work
NHE1 = NHE1 (Homo sapiens, UniProt P19634); conditions: NHE1 inhibition; cited from earlier work
Sequence of NHE1 (P19634 whole entry, species assumed): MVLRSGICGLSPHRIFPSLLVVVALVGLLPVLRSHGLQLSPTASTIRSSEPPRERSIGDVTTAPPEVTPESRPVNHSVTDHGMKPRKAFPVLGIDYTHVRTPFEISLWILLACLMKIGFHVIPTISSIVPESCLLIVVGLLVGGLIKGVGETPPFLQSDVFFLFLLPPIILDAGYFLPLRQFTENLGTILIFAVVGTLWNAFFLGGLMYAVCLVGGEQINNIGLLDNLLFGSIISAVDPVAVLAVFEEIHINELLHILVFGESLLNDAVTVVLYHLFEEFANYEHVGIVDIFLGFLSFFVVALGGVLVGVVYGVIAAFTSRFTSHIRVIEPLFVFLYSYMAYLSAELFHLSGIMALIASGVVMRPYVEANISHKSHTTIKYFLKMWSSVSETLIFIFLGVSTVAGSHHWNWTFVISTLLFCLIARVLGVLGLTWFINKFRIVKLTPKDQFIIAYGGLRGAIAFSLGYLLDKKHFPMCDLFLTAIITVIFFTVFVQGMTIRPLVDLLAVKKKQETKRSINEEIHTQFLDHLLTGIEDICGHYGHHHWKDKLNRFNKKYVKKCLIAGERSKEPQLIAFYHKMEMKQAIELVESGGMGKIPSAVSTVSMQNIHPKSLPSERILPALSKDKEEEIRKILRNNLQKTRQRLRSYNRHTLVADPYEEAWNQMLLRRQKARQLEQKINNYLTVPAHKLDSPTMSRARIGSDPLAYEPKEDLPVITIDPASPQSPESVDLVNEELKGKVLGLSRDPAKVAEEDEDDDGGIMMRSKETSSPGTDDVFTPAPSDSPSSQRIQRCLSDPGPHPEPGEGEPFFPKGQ

CA3 neurons [4] = conditions: cited from earlier work
CA3 neurons [5] = conditions: 50 μM; CO2/HCO3−-buffered; cited from earlier work
K+ channels = conditions: 100-500 μM; cited from earlier work
[6] = system: high-voltage-activated Ca2+ channels; conditions: hippocampal CA1 neurons; cited from earlier work
N-type Ca2+ channel = molecular target: T1, N-type Ca2+ channel (Homo sapiens, UniProt Q00975); conditions: calculated for 50 μM; cited from earlier work
T1 construct: N-type Ca2+ channels of hippocampal CA1 neurons; host or cells: hippocampal CA1 neurons
T1 sequence (Q00975 whole entry): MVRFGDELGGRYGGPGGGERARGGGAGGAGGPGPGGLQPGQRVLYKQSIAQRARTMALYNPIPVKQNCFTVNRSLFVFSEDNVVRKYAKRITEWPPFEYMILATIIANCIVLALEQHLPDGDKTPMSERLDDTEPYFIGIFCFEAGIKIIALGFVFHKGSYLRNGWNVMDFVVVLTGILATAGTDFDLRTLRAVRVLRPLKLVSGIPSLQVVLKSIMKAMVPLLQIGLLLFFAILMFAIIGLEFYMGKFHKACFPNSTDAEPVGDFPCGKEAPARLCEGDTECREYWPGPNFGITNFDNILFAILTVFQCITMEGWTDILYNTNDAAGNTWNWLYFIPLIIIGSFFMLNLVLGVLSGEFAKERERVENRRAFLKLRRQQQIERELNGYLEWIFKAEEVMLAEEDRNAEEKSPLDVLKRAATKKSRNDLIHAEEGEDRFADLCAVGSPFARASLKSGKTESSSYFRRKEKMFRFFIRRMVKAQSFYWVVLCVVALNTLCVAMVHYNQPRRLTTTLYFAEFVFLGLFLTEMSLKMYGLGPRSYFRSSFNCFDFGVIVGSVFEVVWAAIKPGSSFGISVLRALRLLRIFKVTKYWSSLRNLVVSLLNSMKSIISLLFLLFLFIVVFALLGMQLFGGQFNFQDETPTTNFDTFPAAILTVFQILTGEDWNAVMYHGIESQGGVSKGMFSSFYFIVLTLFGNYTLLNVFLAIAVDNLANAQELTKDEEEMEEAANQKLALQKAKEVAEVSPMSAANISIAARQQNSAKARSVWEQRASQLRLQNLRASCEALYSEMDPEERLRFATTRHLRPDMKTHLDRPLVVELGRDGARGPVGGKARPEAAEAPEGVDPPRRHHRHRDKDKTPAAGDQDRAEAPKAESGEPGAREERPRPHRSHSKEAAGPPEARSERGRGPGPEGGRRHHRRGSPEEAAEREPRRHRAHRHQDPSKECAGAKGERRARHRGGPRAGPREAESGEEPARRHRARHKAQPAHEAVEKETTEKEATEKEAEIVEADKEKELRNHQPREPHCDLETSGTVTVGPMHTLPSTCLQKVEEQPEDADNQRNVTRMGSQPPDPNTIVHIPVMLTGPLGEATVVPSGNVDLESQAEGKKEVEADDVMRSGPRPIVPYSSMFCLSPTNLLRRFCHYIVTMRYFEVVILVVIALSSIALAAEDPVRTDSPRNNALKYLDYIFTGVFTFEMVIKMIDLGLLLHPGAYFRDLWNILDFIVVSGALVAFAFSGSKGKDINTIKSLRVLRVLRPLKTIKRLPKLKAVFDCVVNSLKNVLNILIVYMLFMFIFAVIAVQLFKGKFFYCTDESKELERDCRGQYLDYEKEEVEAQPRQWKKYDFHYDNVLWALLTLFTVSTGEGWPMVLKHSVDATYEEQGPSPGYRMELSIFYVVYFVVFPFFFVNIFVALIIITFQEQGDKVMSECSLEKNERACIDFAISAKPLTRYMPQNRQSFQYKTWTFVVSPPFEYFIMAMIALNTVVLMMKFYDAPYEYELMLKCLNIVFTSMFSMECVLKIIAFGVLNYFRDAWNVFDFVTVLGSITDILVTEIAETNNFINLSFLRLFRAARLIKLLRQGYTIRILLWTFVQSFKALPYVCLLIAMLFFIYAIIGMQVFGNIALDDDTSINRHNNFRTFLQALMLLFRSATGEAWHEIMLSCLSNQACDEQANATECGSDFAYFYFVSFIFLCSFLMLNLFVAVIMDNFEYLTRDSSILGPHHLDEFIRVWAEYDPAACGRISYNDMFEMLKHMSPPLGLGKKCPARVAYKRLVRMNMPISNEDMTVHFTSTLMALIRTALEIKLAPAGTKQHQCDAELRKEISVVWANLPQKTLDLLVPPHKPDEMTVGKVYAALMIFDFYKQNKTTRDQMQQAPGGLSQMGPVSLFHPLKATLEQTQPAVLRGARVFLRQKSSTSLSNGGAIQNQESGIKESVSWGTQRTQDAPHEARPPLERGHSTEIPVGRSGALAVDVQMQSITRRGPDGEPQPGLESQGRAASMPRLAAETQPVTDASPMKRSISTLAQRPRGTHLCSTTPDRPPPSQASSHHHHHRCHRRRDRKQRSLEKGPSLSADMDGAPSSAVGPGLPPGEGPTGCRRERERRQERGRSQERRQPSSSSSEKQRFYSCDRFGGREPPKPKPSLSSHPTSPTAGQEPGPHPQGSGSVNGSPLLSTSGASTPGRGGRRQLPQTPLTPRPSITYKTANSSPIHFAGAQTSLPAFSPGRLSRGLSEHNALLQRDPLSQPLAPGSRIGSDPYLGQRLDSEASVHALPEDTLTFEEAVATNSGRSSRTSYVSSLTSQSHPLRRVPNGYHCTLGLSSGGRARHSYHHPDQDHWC

[7] = Cancer patients treated orally with acid-efflux inhibitor combinations: side effects; assay type: in vivo, human
Description: Patients have been treated orally with a combination of drugs that inhibit the efflux of acid (H+, CO2, and/or lactic acid). Although these drugs tend to alkalinize the extracellular milieu of cancer cells, they may be administered in combinations that achieve a metabolic acidosis.
Esomeprazole (vacuolar H+ ATPase pump inhibitor) was used either daily or every other day, with a dose ranging from 240 mg per day up to 320 mg per day, or more.
Methazolamide (a carbonic anhydrase inhibitor) was used every other day with a dose ranging from 50 mg per day up to a maximum of 400 mg per day. […] Side effects were especially noticeable in a patient with elevated liver function tests due to metastatic disease to the liver.
Amiloride (Na−H+ exchanger inhibitor and an inhibitor of urokinase plasminogen activator) was used daily at a dose of 20 mg per day, or more. Because amiloride is a potassium-sparing diuretic, with a propensity to cause hyperkalemia, HCTZ, at 25 mg 2 times per day was administered as well. In addition, the use of amiloride in combination with HCTZ has shown to inhibit metastases more effectively than when amiloride is used alone.
NaHCO3 (Arm & Hammer Baking Soda) was used daily, in some cases, at a dose ranging from 5 grams to 30 grams per day, or more.
Intravenous lactate and/or glucose (with or without insulin) are useful for potentiating this therapy. […]

proton pump = proton pump (Homo sapiens, UniProt P20648); conditions: compared with classical PPIs; cited from earlier work
Sequence of proton pump (P20648 whole entry): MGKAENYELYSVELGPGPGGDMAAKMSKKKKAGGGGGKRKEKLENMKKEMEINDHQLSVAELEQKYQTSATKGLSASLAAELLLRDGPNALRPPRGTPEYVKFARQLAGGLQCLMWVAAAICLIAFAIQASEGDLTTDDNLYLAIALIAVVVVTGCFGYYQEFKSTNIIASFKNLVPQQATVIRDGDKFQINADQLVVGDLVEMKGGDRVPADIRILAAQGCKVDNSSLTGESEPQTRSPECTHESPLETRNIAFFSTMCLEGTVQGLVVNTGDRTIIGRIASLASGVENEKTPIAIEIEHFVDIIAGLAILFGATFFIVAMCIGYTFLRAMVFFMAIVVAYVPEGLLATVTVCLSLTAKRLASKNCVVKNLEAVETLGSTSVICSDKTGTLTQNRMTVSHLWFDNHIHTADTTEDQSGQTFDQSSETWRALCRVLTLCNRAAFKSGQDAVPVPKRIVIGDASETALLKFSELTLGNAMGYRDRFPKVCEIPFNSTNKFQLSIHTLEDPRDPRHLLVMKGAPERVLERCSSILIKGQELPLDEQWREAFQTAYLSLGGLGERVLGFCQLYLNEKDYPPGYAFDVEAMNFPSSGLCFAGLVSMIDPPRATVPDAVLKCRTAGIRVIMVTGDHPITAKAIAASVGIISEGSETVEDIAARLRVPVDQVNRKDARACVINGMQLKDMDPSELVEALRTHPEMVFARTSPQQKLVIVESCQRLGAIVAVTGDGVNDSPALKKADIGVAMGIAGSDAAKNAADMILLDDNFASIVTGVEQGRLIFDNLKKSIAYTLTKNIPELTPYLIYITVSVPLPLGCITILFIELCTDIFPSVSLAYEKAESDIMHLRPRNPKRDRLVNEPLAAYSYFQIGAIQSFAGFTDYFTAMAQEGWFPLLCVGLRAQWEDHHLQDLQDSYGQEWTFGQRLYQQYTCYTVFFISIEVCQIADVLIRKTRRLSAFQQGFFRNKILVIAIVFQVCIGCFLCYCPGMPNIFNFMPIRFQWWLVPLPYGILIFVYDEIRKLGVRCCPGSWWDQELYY
Sequence of proton pump (P51164 whole entry partner): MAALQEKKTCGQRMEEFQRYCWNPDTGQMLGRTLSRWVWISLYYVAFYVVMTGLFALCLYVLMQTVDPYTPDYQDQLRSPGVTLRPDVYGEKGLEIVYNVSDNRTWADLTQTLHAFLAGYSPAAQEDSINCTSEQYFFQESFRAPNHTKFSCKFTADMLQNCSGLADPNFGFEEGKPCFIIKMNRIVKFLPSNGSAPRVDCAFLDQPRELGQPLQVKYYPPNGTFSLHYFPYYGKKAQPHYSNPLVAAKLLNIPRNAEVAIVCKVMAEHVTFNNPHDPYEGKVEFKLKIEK

[8] = as low as; dose dependent; cited from earlier work
[9] = system: isolated normal rat hepatocyte; conditions: 72 hours' treatment; read-out: 50% inhibitory concentrations (IC(50)); cited from earlier work
Huh-7 cells = conditions: cited from earlier work
[10] = system: subcutaneous xenografted Huh-7 cells; conditions: 1 or 10 mg/kg/d subcutaneously, 2 weeks, cited from earlier work
human melanoma [11] = conditions: well-tolerated doses; cited from earlier work
human melanoma [12] = conditions: preadministration; cited from earlier work
human breast cancer = conditions: chronic oral administration; cited from earlier work

**Q.** With `CO/C1=C\C(C)=C\[C@@H](C)[C@@H](O)[C@@H](C)C/C(C)=C/C=C/[C@H](OC)[C@@H]([C@@H](C)[C@@H](O)[C@H](C)[C@@]2(O)C[C@@H](O)[C@H](C)[C@@H](C(C)C)O2)OC1=O` [Baf-A1, Bafilomycin A1] as the molecule, how does the “cellular reproduction and apoptosis” value (hepatoblastoma cells) read?
**A.** Its value is “inhibits hepatoblastoma cellular reproduction by inducing apoptosis”.

**Q.** And the “inhibition of cell growth” value [1]?
**A.** The value was “negligible”.

**Q.** For `O=S(=O)(O)c1cc(N=C=S)ccc1C=Cc1ccc(N=C=S)cc1S(=O)(=O)O` [DIDS, 4,4′-diisothiocyanato-stilbene-2,2′-disulfonic acid], which “alkalinization upon removal of extracellular Cl−” value ([2]; 500 μM, pretreatment 15 min, n=3) is on record?
**A.** Its value is “completely abolished”.

**Q.** Which “reasonably well tolerated daily dose” value [3] does the source give for `O=[N+]([O-])c1ccc(O)c([N+](=O)[O-])c1` [DNP, dinitrophenol] here?
**A.** Its value is 3 to 5 mg/kg.

**Q.** For `CCN(c1nc(N)c(C(=O)N=C(N)N)nc1Cl)C(C)C` [EIPA, 5-(N-ethyl-N-isopropyl)-amiloride], which “potency relative to amiloride” value (NHE1) is on record?
**A.** Its value is “about 200 times”.

**Q.** Which “effect on pHi” value (CA3 neurons [4]; 1 μM (n=4)) does the source give for `CC[C@@H](C(N)=O)N1CCCC1=O` [LEV, levetiracetam] here?
**A.** Its value is “without any effect”.

**Q.** And the “effect on steady-state pHi” value (CA3 neurons [4]; 10 μM (n=3))?
**A.** The value was “Small shifts”.

**Q.** And the “steady-state pHi” value (CA3 neurons [4]; 50 μM, Na+-free CO2/HCO3−-buffered solution, n=5)?
**A.** The value was “not likely further influenced”.

**Q.** What about the “mean acidification of steady-state pHi, nonresponding neurons excluded” value (CA3 neurons [4]; 50 μM, neuronal somata, CO2/HCO3−-buffered solution, n=8) of the same molecule?
**A.** Its value is 0.19±0.07 pH units.

**Q.** And the “mean acidification of steady-state pHi” value (CA3 neurons [4]; 50 μM, neuronal somata, CO2/HCO3−-buffered solution, n=11)?
**A.** Its value is 0.14±0.09 pH units.

**Q.** What about the “decrease of pHi” value (CA3 neurons [4]; 50 μM, nominal absence of extracellular CO2/HCO3−, HEPES pH 7.4, n=5) of the same molecule?
**A.** The value was “abolished”.

**Q.** And the “decrease of pHi of larger regions” value (CA3 neurons [4]; 50 μM, stratum pyramidale, CO2/HCO3−-buffered solution, n=5)?
**A.** The value was 0.11±0.04 pH units.

**Q.** What about the “effect on pHi” value (CA3 neurons [4]; increase to 100 μM (n=4)) of the same molecule?
**A.** Its value is “without additional effect”.

**Q.** And the “steady-state pHi after preincubation” value (CA3 neurons [5])?
**A.** Its value is 6.82.

**Q.** What about the “alkalinization upon removal of extracellular Cl−” value ([2]; 50, preincubation 15 min, n=5) of the same molecule?
**A.** The value was “no effect”.

**Q.** And the “inhibition of K+ channels” value (K+ channels)?
**A.** Its value is “less than 20%”.

**Q.** What about the “reduction of high-voltage-activated calcium currents” value [6] of the same molecule?
**A.** Its value is “about 20%”.

**Q.** What about the “reduction of N-type Ca2+ channel currents” value (N-type Ca2+ channel) of the same molecule?
**A.** The value was “ca. 15%”.

**Q.** For `CC(=O)/N=c1/sc(S(N)(=O)=O)nn1C` [Methazolamide], which side effects ([7]; every other day, 50 mg per day up to 400 mg per day) is on record?
**A.** Its side effects is “tingling in extremities, acidosis, fatigue, and nausea”.

**Q.** With `COCCO[C@@H]1c2ccn3c(C)c(C)nc3c2N[C@H](c2ccccc2)[C@H]1O` [Soraprazan] as the molecule, how does the “time to block H+ secretion” value (proton pump) read?
**A.** The value was “within a half-hour”.

**Q.** With `N=C(N)NC(=O)c1nc(Cl)c(N)nc1N` [amiloride] as the molecule, how does the doses found effective [8] read?
**A.** The doses found effective was no less than 0.3 mg/kg body weight per day.

**Q.** Which results are given for `COC1=CC(c2ccc[nH]2)=N/C1=C\c1[nH]c(C)c2c1C(C)CCC2` (stereo not drawn) [cPrG-HCl, Cycloprodigiosin hydrochloride]?
**A.** IC50 [9]: 8.4 µM; pHi (Huh-7 cells; lowered pHi): < 6.8; apoptosis (Huh-7 cells; subG(1) population, DNA fragmentation, chromatin condensation): induced apoptosis; pathological changes in organs [10]: No pathological changes were observed in any organs; serum alanine transaminase levels [10]: remained within normal limits; tumor growth ([10]; compared with the control after 8 days): significantly inhibited tumor growth

**Q.** For `COc1ccc2nc([S@@+]([O-])Cc3ncc(C)c(OC)c3C)[nH]c2c1` [esomeprazole, Esomeprazole], which “tumor growth and survival” value (human melanoma [11]) is on record?
**A.** Its value is “markedly impede tumor growth and prolong survival”.

**Q.** For `COc1ccc2[nH]c([S+]([O-])Cc3ncc(C)c(OC)c3C)nc2c1` (stereo not drawn) [omeprazole], which “growth-retardant impact of cisplatin” value (human melanoma [12]) is on record?
**A.** The value was “potentiate the growth-retardant impact of cisplatin”.

**Q.** For `Cc1nc(Nc2ccc(F)cc2)nc(N2CCc3ccccc3C2C)c1C` (stereo not drawn) [revaprazan], which “time to block H+ secretion” value (proton pump) is on record?
**A.** The value was “within a half-hour”.

**Q.** For `O=C([O-])O.[Na+]` [sodium bicarbonate], which side effects ([7]; daily, 5 grams to 30 grams per day) is on record?
**A.** Its side effects is “bloating and abdominal discomfort”.

**Q.** What about the “expansion of primary tumors” value (human breast cancer) of the same molecule?
**A.** The value was “not influencing the expansion of primary tumors”.

**Q.** And the “metastases in lung, visceral organs, and lymph nodes” value (human breast cancer)?
**A.** The value was “markedly reduces the number and size of metastases”.
